What all share (assay type): physicochemical
The nature of data set [1]: Solubility.
The nature of data set [2]: Hygroscopicity: absorption of atmospheric water, measured by TGA. The settings on record: relative humidity of 80%, 100% at room temperature, non-hygroscopic = less than 0.2% (w/w) absorption of atmospheric water by TGA. The text has this:
As used herein the term non-hygroscopic in relation to crystalline Eltrombopag refers to less than 0.2% (w/w) absorption of atmospheric water to the crystalline Eltrombopag in the above specified conditions, as measured by TGA.

Data set [3] in a line: Thermo-dynamical stability: conversion to other solid state forms under heating, measured by XRPD. The settings on record: heating up to 200° C. at 10° C./minute, defined as less than 20%, 5%, 1%, or 0.5% conversion to any other solid state form by XRPD. The method, then: As used herein the term “thermo-dynamical stability” in relation to crystalline Eltrombopag form I refers to less than 20%, 10%, 5%, 1%, or 0.5% conversion of crystalline Eltrombopag form Ito any other solid state form of Eltrombopag under heating up to temperature of 200° C. at a heating rate of 10° C./minute, as measured by XRPD. In some embodiments, the conversion is 1%-20%, 1%-10% or 1%-5%.

With `CC1=NN(c2ccc(C)c(C)c2)C(=O)/C1=N\Nc1cccc(-c2cccc(C(=O)O)c2)c1O` [Eltrombopag bisethanolamine form II], the solubility in water entry in data set [1] (water) is “highly soluble in water”.
As to `CC1=NN(c2ccc(C)c(C)c2)C(=O)/C1=N\Nc1cccc(-c2cccc(C(=O)O)c2)c1O` [Eltrombopag form III], in data set [2] (at least 10 months), the hygroscopicity result is listed as “non-hygroscopic”.
As for `CC1=NN(c2ccc(C)c(C)c2)C(=O)/C1=N\Nc1cccc(-c2cccc(C(=O)O)c2)c1O` [Eltrombopag form I], the thermo-dynamical stability entry in data set [3] is listed as “advantageous”. Further, the solubility entry in data set [1] (medium not stated) is reported as “advantageous”.
For `CC1=NN(c2ccc(C)c(C)c2)C(=O)/C1=N\Nc1cccc(-c2cccc(C(=O)O)c2)c1O` [Eltrombopag form XVI], the hygroscopicity result in data set [2] (at least 5 months) is on record as “non-hygroscopic”.

(Values after patent US8372822B2, “Polymorphs of eltrombopag and eltrombopag salts and processes for preparation thereof” (Pliva Hrvatska D.O.O., priority 2009, dated 2013).)
